ChEMBL document CHEMBL1201862, “PubChem BioAssay data set” (2004)
Active and inactive are the calls of the source.

Key:
Protein skinhead-1 = target: T1, Protein skinhead-1 (Caenorhabditis elegans, UniProt P34707); type: functional
T1 sequence (P34707 whole entry): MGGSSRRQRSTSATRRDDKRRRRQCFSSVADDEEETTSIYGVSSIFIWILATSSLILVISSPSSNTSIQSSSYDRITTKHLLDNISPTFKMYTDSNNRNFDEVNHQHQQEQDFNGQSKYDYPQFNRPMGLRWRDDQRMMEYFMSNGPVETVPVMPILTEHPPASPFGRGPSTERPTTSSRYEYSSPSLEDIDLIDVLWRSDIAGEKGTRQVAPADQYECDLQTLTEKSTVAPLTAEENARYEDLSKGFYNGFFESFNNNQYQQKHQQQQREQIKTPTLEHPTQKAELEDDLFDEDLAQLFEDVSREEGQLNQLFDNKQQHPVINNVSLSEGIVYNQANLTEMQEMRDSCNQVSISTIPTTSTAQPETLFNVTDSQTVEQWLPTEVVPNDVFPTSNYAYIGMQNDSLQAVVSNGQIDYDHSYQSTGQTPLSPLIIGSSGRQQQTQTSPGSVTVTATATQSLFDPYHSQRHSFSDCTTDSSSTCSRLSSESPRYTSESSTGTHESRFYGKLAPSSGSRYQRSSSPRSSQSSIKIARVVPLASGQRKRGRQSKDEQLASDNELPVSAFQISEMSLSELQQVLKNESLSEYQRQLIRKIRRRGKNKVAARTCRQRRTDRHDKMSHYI

[1] = target: T2, Corticotropin-releasing factor receptor 2/Corticotropin-releasing factor-binding protein (Homo sapiens, UniProt P24387+Q13324); assay: Dose Response confirmation of uHTS hits for small molecule antagonists of the CRF-binding protein and CRF-R2 receptor complex.; type: functional; settings: read-out: IC50_Mean
T2 sequence (Q13324 whole entry): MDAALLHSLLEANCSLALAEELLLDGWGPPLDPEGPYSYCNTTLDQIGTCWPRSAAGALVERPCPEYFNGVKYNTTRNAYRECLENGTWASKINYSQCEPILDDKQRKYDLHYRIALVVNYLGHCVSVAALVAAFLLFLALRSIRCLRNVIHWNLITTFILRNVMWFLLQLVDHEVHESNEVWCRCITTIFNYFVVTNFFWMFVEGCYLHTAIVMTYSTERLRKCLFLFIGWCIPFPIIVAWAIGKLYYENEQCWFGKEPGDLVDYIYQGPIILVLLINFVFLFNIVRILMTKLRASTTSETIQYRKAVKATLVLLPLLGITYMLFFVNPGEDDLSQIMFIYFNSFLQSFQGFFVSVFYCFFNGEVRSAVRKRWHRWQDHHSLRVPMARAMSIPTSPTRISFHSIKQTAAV
T2 sequence (P24387 whole entry): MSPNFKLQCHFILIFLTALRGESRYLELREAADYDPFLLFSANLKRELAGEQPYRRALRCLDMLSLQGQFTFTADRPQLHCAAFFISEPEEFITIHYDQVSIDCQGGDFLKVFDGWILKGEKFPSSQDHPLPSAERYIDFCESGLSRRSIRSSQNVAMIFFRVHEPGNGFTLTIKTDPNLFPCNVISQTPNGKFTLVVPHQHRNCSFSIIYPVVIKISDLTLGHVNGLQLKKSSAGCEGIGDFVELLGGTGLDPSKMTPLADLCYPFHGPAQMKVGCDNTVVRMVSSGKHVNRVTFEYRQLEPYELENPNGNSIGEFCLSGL

[2] = target: T2, Corticotropin-releasing factor receptor 2/Corticotropin-releasing factor-binding protein; assay: activators of CRF receptor 2 with binding protein – uHTS hits, confirmation (AID 602473); type: functional; settings: read-out: EC50_Mean
P388/ADR = assay: cells; type: functional; settings: Mus musculus
SN12K1 = assay: cells; type: functional; settings: Homo sapiens
P388 = assay: cells; type: functional; settings: Mus musculus
[3] = Trypanosoma cruzi growth suppression in host cells – NIH3T3 host cells, beta-gal luminescence, confirmation (AID 2044); type: functional, cell-based;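 note: intracellular parasites grown in NIH/3T3 mouse fibroblasts as host cells; luminescent beta-galactosidase reporter signal from transgenic T. cruzi replicating inside host cells; inhibitors lower the luminescence signal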
[4] = NIH3T3 cell viability loss – ATP luminescence, mouse fibroblasts, counter-screen, dose response (AID 2010); type: functional, cell-based; settings: NIH3T3;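 note: cells exposed to compound for about 90 hours before reading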
Cytochrome P450 2C9 = Cytochrome P450 2C9 (Homo sapiens, UniProt P11712)
Chain of Cytochrome P450 2C9 (P11712 whole entry): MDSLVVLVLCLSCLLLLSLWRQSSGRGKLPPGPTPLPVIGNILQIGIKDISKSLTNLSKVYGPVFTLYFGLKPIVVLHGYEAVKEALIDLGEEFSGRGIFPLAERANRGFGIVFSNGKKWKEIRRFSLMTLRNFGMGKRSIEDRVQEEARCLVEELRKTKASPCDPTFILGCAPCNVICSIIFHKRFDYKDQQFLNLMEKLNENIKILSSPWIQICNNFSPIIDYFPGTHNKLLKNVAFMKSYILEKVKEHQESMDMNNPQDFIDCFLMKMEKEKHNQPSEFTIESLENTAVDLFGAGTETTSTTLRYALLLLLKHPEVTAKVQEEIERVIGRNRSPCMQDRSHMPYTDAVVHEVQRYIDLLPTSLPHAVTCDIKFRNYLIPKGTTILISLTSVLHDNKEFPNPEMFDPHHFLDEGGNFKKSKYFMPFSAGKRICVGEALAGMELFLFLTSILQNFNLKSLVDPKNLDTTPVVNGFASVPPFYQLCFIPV

Cytochrome P450 2C19 = Cytochrome P450 2C19 (Homo sapiens, UniProt P33261); assay: Cytochrome panel assay with activity outcomes. Panel member name: p450-cyp2c19 Compounds with AC50 equal or less than 10 uM are considered active; type: functional; settings: read-out: AC50
Chain of Cytochrome P450 2C19 (P33261 whole entry): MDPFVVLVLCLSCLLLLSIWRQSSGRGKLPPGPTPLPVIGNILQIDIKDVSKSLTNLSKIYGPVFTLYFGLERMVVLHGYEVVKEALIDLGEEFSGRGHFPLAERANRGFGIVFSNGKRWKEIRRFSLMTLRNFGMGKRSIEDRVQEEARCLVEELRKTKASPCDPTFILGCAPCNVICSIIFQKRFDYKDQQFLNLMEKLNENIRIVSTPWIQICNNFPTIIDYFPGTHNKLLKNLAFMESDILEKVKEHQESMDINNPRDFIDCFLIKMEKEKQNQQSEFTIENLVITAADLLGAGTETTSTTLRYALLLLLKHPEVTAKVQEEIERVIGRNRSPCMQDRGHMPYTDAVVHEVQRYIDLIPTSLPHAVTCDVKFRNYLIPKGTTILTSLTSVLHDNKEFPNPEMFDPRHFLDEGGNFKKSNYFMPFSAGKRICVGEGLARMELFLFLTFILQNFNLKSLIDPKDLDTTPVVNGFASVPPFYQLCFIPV

[5] = viability of PTEN-deleted HCT116 cells – cell-based, HCT116 PTEN knockout, dose response (AID 1047); type: functional;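 note: HCT116 colon tumor cells with PTEN knocked out; cells exposed to compound for 60 hours before readout; potency for loss of cell viability measured by luminescence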
[6] = Luminescence Cell-Based Dose Retest to Confirm Inhibitors of Cancer Stem Cells. [Related pubchem assays (depositor defined):AID2717, AID2721]; type: functional, Homo sapiens; settings: Homo sapiens
Streptococcus = assay: GAS UMAA2166 growth inhibition – luminescence, BacTiterGlo, counter-screen for streptokinase expression inhibitor project, dose response (AID 1915); type: functional, organism-based; settings: Streptococcus;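 note: potency for reduction of bacterial viability or growth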
[7] = viability of HCT116 lacking mutant beta-catenin – cell-based, human colon tumor, dose response (AID 1045); type: functional;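 note: HCT116 colon tumor cells with beta catenin knocked out; cells exposed to compound for 60 hours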
[8] = system: Streptococcus sp. 'group A'; assay: Streptococcus pyogenes SK(-)GAS viability under kanamycin – luminescence, BacTiterGlo, confirmation, counter-screen for streptokinase expression inhibitor project, dose response (AID 1900); type: functional, organism-based; settings: Streptococcus sp. 'group A'

Structure (SMILES)	GI50 (P388/ADR)	GI50 (SN12K1)	GI50 (P388)	other results
COc1ccc([N+](=O)[O-])cc1NC(=O)C(C)OC(=O)CSC(C)C(=O)Nc1cc(C)on1 (centres undefined)	–	–	–	IC50 (Protein skinhead-1): > 100 µM (inactive)
CN(C)CCCNC(=O)C[C@H]1C[C@H](C(=O)N2CCOCC2)[C@@]2(C)c3[nH]c4ccc(Cl)cc4c3CCN2C1=O	–	–	–	IC50 [1]: > 47.1 µM (inactive); EC50 [2]: > 53 µM (inactive)
COC(=O)C1=C(C)N=c2s/c(=C/c3cccs3)c(=O)n2C1c1ccc(F)cc1 (centres undefined)	–	–	–	IC50 (Protein skinhead-1): > 100 µM (inactive)
C(=N/NC1=NCCN1)/c1c2ccccc2c(/C=N\NC2=NCCN2)c2ccccc12	14.6 µM (inactive)	0.0284 µM (active)	0.000861 µM (active)	–
CCC1=CC2CN3CCc4c([nH]c5ccccc45)C(C(=O)OC)(C2)C13 (centres undefined)	30.1 µM (inactive)	17.7 µM (inactive)	21 µM (inactive)	–
O=C(/N=C1/N=C2C=CC(Br)=CN2Cc2ccccc21)c1ccc([N+](=O)[O-])cc1[N+](=O)[O-]	–	–	–	IC50 (Protein skinhead-1): 28.3 µM (active); EC50 [3]: 1.39 µM (active); EC50 [4]: > 60 µM (not active)
NC1=NC(c2ccccc2)CC(c2cc(Cl)cc(Br)c2O)=N1 (centres undefined)	3.87 µM (inactive)	13.6 µM (inactive)	2.9 µM (inactive)	–
Cc1cccc(C)c1NC(=O)Cc1cccs1	–	–	–	IC50 [1]: > 47.1 µM (inactive); EC50 [2]: > 53 µM (inactive)
COc1cccc2c1C(=O)c1c(O)c3c(c(O)c1C2=O)C[C@](O)(C(=O)CO)CC3OC1CC(N)C(OC2CCCCO2)C(C)O1 (some centres undefined)	3.14 µM (inactive)	< 0.01 µM (active)	< 0.01 µM (active)	–
Nc1ncnc2c(C3OC(CO)C(O)C3O)n[nH]c12 (centres undefined)	5.6 µM (inactive)	0.176 µM (active)	10.2 µM (inactive)	–
CCOC(=O)C(/C=N/c1ncccc1C)=C(/O)OCC	–	–	–	AC50 (Cytochrome P450 2C9): inconclusive
Cc1cc(C(=O)N/N=C/c2cccc([N+](=O)[O-])c2)c(C)o1	–	–	–	AC50 (Cytochrome P450 2C9): inconclusive; AC50 (Cytochrome P450 2C19): 22.4 µM (inconclusive)
Clc1ccc2c(N/N=C/c3ccc(Br)cc3)ccnc2c1	–	–	–	EC50 [5]: 15.5 µM (active); AC50 [6]: 3.79 µM (active); EC50 (Streptococcus): 3.89 µM (active); EC50 [7]: 9.32 µM (active); EC50 [8]: 2.54 µM (active)
COc1ccc(/C=C\c2cc(OC)c(OC)c(OC)c2)c(O)c1O [COMBRETASTATIN A-1]	0.139 µM (active)	0.05 µM (active)	0.0525 µM (active)	–
NC(=O)NO [HYDROXYUREA]	59.3 µM (inactive)	173 µM (inactive)	69.8 µM (inactive)	–
O=C(O)Cc1cccc2c(=O)cc(-c3ccccc3)oc12 [MITOFLAXONE]	> 79.3 µM (inactive)	> 250 µM (inactive)	93.8 µM (inactive)	–
O=C1NC2(CCCCC2)C(=O)N1CCN(CCCl)CCCl [SPIROMUSTINE]	29.6 µM (inactive)	132 µM (inactive)	30.2 µM (inactive)	–
